Source: patent US11261177B2, “Benzoxazinone derivatives useful as herbicides” (REDAG CROP PROTECTION LTD, priority 2017, dated 2022)

Experiments:
Assay type in all cases: in vivo
Lolium perenne [1] = experiment: Pre-emergence herbicidal assay, 96 cell trays, glasshouse; conditions: 168 h, Lollium, assessed 7 days after treatment, read-out: % control of plant growth; for pest or weed control at 200 g/ha: 0.2 kg/ha; for pest or weed control at 1000 g/ha: 1 kg/ha; for pest or weed control at 5000 g/ha: 5 kg/ha
Method: (§1) The compounds were screened at three concentrations (0.2, 1 and 5 kg/ha) against 2 weed species (Stellaria media—Chickweed and Lolium perenne). The seeds were sown in the cells of 96 cell trays (4-6 seeds per cell). For the pre-emergence assay, 75 μL of a suspension of the test compound, at the above doses, was added on top of the soil 1 day after sowing. For the post-emergence assay, the seedlings were sprayed with 200 μL of a suspension of the test compound two weeks after sowing. The formulation used is 25% acetone and 75% water/0.01% Tween 20. Each treatment was replicated three times. The plants were kept in a glasshouse (uncontrolled conditions) and assessed 7 days after treatment. A small number of compounds were tested in a first trial. A larger number of compounds were tested in a second trial. The assessment was based on the % control of plant growth in each cell.

[2] = test system: Stellaria media—Chickweed; experiment: as above; conditions: 168 h, assessed 7 days after treatment, read-out: % control of plant growth; for pest or weed control at 200 g/ha: 0.2 kg/ha; for pest or weed control at 1000 g/ha: 1 kg/ha; for pest or weed control at 5000 g/ha: 5 kg/ha
Method: as §1

Lolium perenne [3] = experiment: Post-emergence herbicidal assay, 96 cell trays, glasshouse; conditions: 168 h, Lollium, assessed 7 days after treatment, read-out: % control of plant growth; for pest or weed control at 200 g/ha: 0.2 kg/ha; for pest or weed control at 1000 g/ha: 1 kg/ha; for pest or weed control at 5000 g/ha: 5 kg/ha
Method: as §1

[4] = test system: Stellaria media—Chickweed; experiment: as above; conditions: 168 h, assessed 7 days after treatment, read-out: % control of plant growth; for pest or weed control at 200 g/ha: 0.2 kg/ha; for pest or weed control at 1000 g/ha: 1 kg/ha; for pest or weed control at 5000 g/ha: 5 kg/ha
Method: as §1

[5] = test system: 2 weed species (Stellaria media—Chickweed and Lolium perenne); experiment: Herbicidal activity screen, summary in words over both weed species; conditions: pre- and post-emergence, 0.2, 1 and 5 kg/ha
Method: as §1

SMILES	pest or weed control at 200 g/ha (Lolium perenne [1]; second trial (Table 2)) [%]	pest or weed control at 1000 g/ha (Lolium perenne [1]; second trial (Table 2)) [%]	pest or weed control at 5000 g/ha (Lolium perenne [1]; second trial (Table 2)) [%]	pest or weed control at 200 g/ha ([2]; second trial (Table 2)) [%]	pest or weed control at 1000 g/ha ([2]; second trial (Table 2)) [%]	pest or weed control at 5000 g/ha ([2]; second trial (Table 2)) [%]	pest or weed control at 200 g/ha (Lolium perenne [3]; second trial (Table 2)) [%]	pest or weed control at 1000 g/ha (Lolium perenne [3]; second trial (Table 2)) [%]	pest or weed control at 5000 g/ha (Lolium perenne [3]; second trial (Table 2)) [%]	pest or weed control at 200 g/ha ([4]; second trial (Table 2)) [%]	pest or weed control at 1000 g/ha ([4]; second trial (Table 2)) [%]	pest or weed control at 5000 g/ha ([4]; second trial (Table 2)) [%]	herbicidal activity [5]	other results
C#CCN1C(=O)C2(CC2)Oc2cc(F)c(N3C(=O)CC(C)CC3=O)cc21 [Example 29, 1-(7-Fluoro-3-oxo-4-(prop-2-yn-1-yl)-3,4-dihydrospiro[benzo[b][1,4]oxazine-2,1′-cyclopropan]-6-yl)-4-methylpiperidine-2,6-dione]	80 to 100	80 to 100	80 to 100	80 to 100	80 to 100	80 to 100	< 20	20 to 80	20 to 80	80 to 100	80 to 100	80 to 100	excellent herbicidal activity against all tested species	–
C#CCN1C(=O)C2(CC2)Oc2cc(F)c(-n3ncc(C(F)(F)F)c(C)c3=O)cc21 [Example 4, 7-Fluoro-6-(5-methyl-6-oxo-4-(trifluoromethyl)pyridazin-1(6H)-yl)-4-(prop-2-yn-1-yl)spiro[benzo[b][1,4]oxazine-2,1′-cyclopropan]-3(4H)-one]	80 to 100	80 to 100	80 to 100	80 to 100	80 to 100	80 to 100	80 to 100	80 to 100	80 to 100	80 to 100	80 to 100	80 to 100	excellent herbicidal activity against all tested species	pest or weed control at 200 g/ha (Lolium perenne [1]; first trial (Table 1)): 80 to 100%; pest or weed control at 1000 g/ha (Lolium perenne [1]; first trial (Table 1)): 80 to 100%; pest or weed control at 5000 g/ha (Lolium perenne [1]; first trial (Table 1)): 80 to 100%; pest or weed control at 200 g/ha ([2]; first trial (Table 1)): 80 to 100%; pest or weed control at 1000 g/ha ([2]; first trial (Table 1)): 80 to 100%; pest or weed control at 5000 g/ha ([2]; first trial (Table 1)): 80 to 100%; pest or weed control at 200 g/ha (Lolium perenne [3]; first trial (Table 1)): 80 to 100%; pest or weed control at 1000 g/ha (Lolium perenne [3]; first trial (Table 1)): 80 to 100%; pest or weed control at 5000 g/ha (Lolium perenne [3]; first trial (Table 1)): 80 to 100%; pest or weed control at 200 g/ha ([4]; first trial (Table 1)): 20 to 80%; pest or weed control at 1000 g/ha ([4]; first trial (Table 1)): 20 to 80%; pest or weed control at 5000 g/ha ([4]; first trial (Table 1)): 20 to 80%
C#CCN1C(=O)C2(CC2)Oc2cc(F)c(-n3c(=O)cc(C(F)(F)F)n(C)c3=O)cc21 [Example 34, 3-(7-Fluoro-3-oxo-4-(prop-2-yn-1-yl)-3,4-dihydrospiro[benzo[b][1,4]oxazine-2,1′-cyclopropan]-6-yl)-1-methyl-6-(trifluoromethyl)pyrimidine-2,4(1H,3H)-dione]	20 to 80	80 to 100	80 to 100	80 to 100	80 to 100	80 to 100	20 to 80	80 to 100	80 to 100	80 to 100	80 to 100	80 to 100	excellent herbicidal activity against all tested species	–
C#CCN1C(=O)C2(CC2)Oc2cc(F)c(N3C(=O)CCC3=O)cc21 [Example 28, 1-(7-Fluoro-3-oxo-4-(prop-2-yn-1-yl)-3,4-dihydrospiro[benzo[b][1,4]oxazine-2,1′-cyclopropan]-6-yl)pyrrolidine-2,5-dione]	80 to 100	80 to 100	80 to 100	80 to 100	80 to 100	80 to 100	20 to 80	80 to 100	80 to 100	80 to 100	80 to 100	80 to 100	excellent herbicidal activity against all tested species	–
C#CCN1C(=O)C2(CC2)Oc2cc(F)c(N3C(=O)C4CCCCN4C3=O)cc21 (stereo not shown) [Example 47]	20 to 80	80 to 100	80 to 100	80 to 100	80 to 100	80 to 100	80 to 100	80 to 100	80 to 100	80 to 100	80 to 100	80 to 100	excellent herbicidal activity against all tested species	–
COC(=O)C(C)N1C(=O)C2(CC2)Oc2cc(F)c(N3C(=O)C4=C(CCCC4)C3=O)cc21 (stereo not shown) [Example 15]	20 to 80	80 to 100	80 to 100	80 to 100	80 to 100	80 to 100	20 to 80	80 to 100	80 to 100	80 to 100	80 to 100	80 to 100	excellent herbicidal activity against all tested species	–
C#CCN1C(=O)C2(CC2)Oc2cc(F)c(-n3c(=O)cc(C(F)(F)F)n(CCC)c3=O)cc21 [Example 43]	20 to 80	80 to 100	80 to 100	20 to 80	80 to 100	80 to 100	20 to 80	20 to 80	80 to 100	80 to 100	80 to 100	80 to 100	excellent herbicidal activity against all tested species	–
C#CCN1C(=O)C2(CC2)Oc2cc(F)c(-n3c(=O)n(C)c(=S)n(C)c3=O)cc21 [Comparative Example, 3-(7-Fluoro-3-oxo-4-(prop-2-yn-1-yl)-3,4-dihydrospiro[benzo[b][1,4]oxazine-2,1′-cyclopropan]-6-yl)-1,5-dimethyl-6-thioxo-1,3,5-triazinane-2,4-dione, reference compound]	< 20	20 to 80	80 to 100	20 to 80	80 to 100	80 to 100	20 to 80	20 to 80	80 to 100	20 to 80	80 to 100	80 to 100	–	pest or weed control at 200 g/ha (Lolium perenne [1]; first trial (Table 1)): < 20%; pest or weed control at 1000 g/ha (Lolium perenne [1]; first trial (Table 1)): 20 to 80%; pest or weed control at 5000 g/ha (Lolium perenne [1]; first trial (Table 1)): 80 to 100%; pest or weed control at 200 g/ha ([2]; first trial (Table 1)): < 20%; pest or weed control at 1000 g/ha ([2]; first trial (Table 1)): < 20%; pest or weed control at 5000 g/ha ([2]; first trial (Table 1)): < 20%; pest or weed control at 200 g/ha (Lolium perenne [3]; first trial (Table 1)): 20 to 80%; pest or weed control at 1000 g/ha (Lolium perenne [3]; first trial (Table 1)): 20 to 80%; pest or weed control at 5000 g/ha (Lolium perenne [3]; first trial (Table 1)): 80 to 100%; pest or weed control at 200 g/ha ([4]; first trial (Table 1)): < 20%; pest or weed control at 1000 g/ha ([4]; first trial (Table 1)): 20 to 80%; pest or weed control at 5000 g/ha ([4]; first trial (Table 1)): 20 to 80%
C#CCN1C(=O)C2(CC2)Oc2cc(F)c(N3C(=O)c4ccc(OC)cc4C3=O)cc21 [Example 10]	< 20	< 20	< 20	20 to 80	80 to 100	80 to 100	< 20	< 20	< 20	20 to 80	80 to 100	80 to 100	–	–
CCCN1C(=O)C2(CC2)Oc2cc(F)c(N3C(=O)c4ccc(F)cc4C3=O)cc21 [Example 22]	< 20	20 to 80	20 to 80	80 to 100	80 to 100	80 to 100	20 to 80	20 to 80	80 to 100	80 to 100	80 to 100	80 to 100	–	–
C#CCN1C(=O)C2(CC2)Oc2cc(F)c(N3C(=O)C=C(C(F)(F)F)C3=O)cc21 [Example 14]	< 20	< 20	< 20	< 20	< 20	< 20	< 20	< 20	< 20	< 20	< 20	< 20	–	–
